Series [1] concerns DMBA-induced tumors of the rat mammary gland. The series is described as follows: DMBA-induced breast tumors: tumor number and tumor type at necropsy. Type of series: in vivo. The conditions noted are these: 10 mg/kg s.c. daily, 28 days. On the procedure:
(§1) To induce breast tumors, Sprague-Dawley female rats were given 10 mg/kg body weight of DMBA at 50 days of age. One group of 14 rats (Group 2) received sesame oil at 50 days of age instead of DMBA to serve as the no-DMBA controls. Animals were weighed and palpated weekly along the milk line for any sign of lesions or swellings. Tumor nodules were noted and measured weekly in two dimensions with calipers. When tumors grew to a size of 10-12 mm in any dimension, the individual animal was randomized into one of 14 groups. Tumors appeared as soon as 39 days after oral gavage and as late as 194 days (latter individual not included in study). The mean latency period for tumor appearance was 106±30 days.
(§2) Animals were treated for 28 days on the following schedule. Group 1 received daily subcutaneous (s.c.) injections of vehicle (10% ethanol in sesame oil). Group 2 (no DMBA control group-no tumors expected) received vehicle on a schedule decided beforehand to simulate initiation of treatment over a three-month time period. […] Groups 5 through 9 received 20 mg/kg, 10 mg/kg, 2 mg/kg, 1 mg/kg and 0.1 mg/kg of CDB-4124, respectively. Groups 10 through 14 mirrored the treatment given 5 through 9 except that 10 mg/kg of micronized progesterone was also added as a component to compositions for injections.
(§3) Animals were sacrificed 3-5 days after the end of the 28-day treatment period, blood was drawn, and tumors were removed, weighed, measured, inspected, and portions frozen and/or placed in 10% phosphate buffered formalin for histopathology. The tissue samples were cut and stained with hematoxylin and eosin and were evaluated for histopathological classification.
Histologically, four types of tumors were identified (Table 2): adenocarcinomas (ACAs), papillary carcinomas (PCAs), a fibrosarcoma, and fibroadenomas or adenofibromas (FA or AF), the latter two tumor types were not considered to represent frank malignancies.

Series [2] has the same test system. The series is described as follows: DMBA-induced breast tumors: tumor progression (growth pattern). The class given is in vivo. The conditions noted are these: 10 mg/kg. On the procedure:
as §1, §2
In order to evaluate the effects of CDB-4124, RU486 and progesterone on tumor development and progression, growth kinetics and tumor size were monitored during the treatment period. Individual tumors from animals with tumors in the study were measured weekly in two dimensions with calipers. The data is corrected to exclude the non-malignant FA/AF tumor types. Tumors that increased in cross-sectional area by at least 33% over the 28-day inspection period were considered to be growing (FIG. 1, black boxes). Those that decreased by approximately 33% were considered to be regressing (FIG. 1, white boxes). Others were considered to be static (FIG. 1, gray boxes).

Series [3] shares this test system. Kind of series: DMBA-induced breast tumors: tumor number, size and tumor burden at necropsy. Type of series: in vivo. The conditions noted are these: 10 mg/kg s.c. daily, 28 days. The procedure: as §1, §2, §3
The results in Table 3 are those for ACA, PCA and mixed ACA/PCA, but the FA or AF tumors are excluded.

The test system of series [4] is rat tumors (proliferation marker Ki-67). Kind of series: Tumor proliferation by Ki-67 immunohistochemistry. Type of series: in vivo. The conditions noted are these: 10 mg/kg. The text has this: In order to assess the effects of progestins and anti-progestins on cell proliferation, tissue sections derived from 46 individual rat tumors from treated an control animals were examined by measuring expression of the proliferation marker Ki-67 using the Ki-67 antibody (NeoMarkers, Fremont, Calif.) and immunohistochemistry. Despite the reduction in size of many tumors in Groups 3 and 6 following treatment in Groups 3 and 6 making them too small to be re-cut, 7-12 ACAs from Groups 1, 3, 4, 6 and 11 were re-cut. The results of proliferation experiments, in which proliferation was measured as a percentage of cells expressing Ki-67, are summarized in Table 4: […]

Another series deals with rat tumors. The series is described as follows: Apoptosis in tumors. The class given is in vivo. The conditions noted are these: 10 mg/kg. The procedure: Apoptosis was evaluated in the same tumors by an apoptosis hybridization kit (Oncor, Gaithersburg, Md.). The cells in apoptosis were evaluated in the peripheral areas of the tumors and far from necrosis. At least 1,000 cells per tumor section were evaluated.

In the next series the test system is estrogen receptor (ER). Kind of series: Expression of estrogen receptor in tumors (IHC). Type of series: in vivo, rat. The conditions noted are these: 10 mg/kg. On the procedure:
(§4) The tumors that were evaluated for proliferation and apoptosis were also assessed for expression of estrogen and progesterone receptors by immunohistochemistry (IHC). The percentage of cells positive for ER and PR was determined and analyzed. Tumors were grouped into four different categories: tumors with 0% of cells expressing ER, tumors with 10% of cells expressing ER, tumors with 15 to 30% of cells expressing ER and tumors with 30-50% of cells expressing ER. In general, untreated tumors consistently expressed ER. Out of 12 tumors analyzed, all 12 expressed ER. Four out of these 12 tumors contained 30-50% ER-positive cells.

The test system of series [5] is progesterone receptor (PR). The series is described as follows: Expression of progesterone receptor in tumors (IHC). Type of series: in vivo, rat. The conditions noted are these: 10 mg/kg. The procedure:
as §4
Untreated tumors consistently expressed PR (12/12 tumors). In general, untreated tumors expressed both receptors, ER and PR, therefore it is possible that many malignant tumors are expressors of these two transcription factors. […] In general, long term treatment with CDB-4124 tends to drive down the level of PR in tumors, whereas progesterone tends to work in the opposite direction. Thus, tumors maintain progesterone responsiveness in the presence of progesterone.

Series [6] in a line: Serum progesterone by ELISA. Type of series: in vivo, rat. On the procedure: (§5) The animals were assessed three times for their levels of progesterone: initially, when they were about to go on treatment; a second time after 21 days of treatment; and finally after treatment at sacrifice which was 2-4 days after the last s.c. injection. All blood samples were taken by heart puncture; serum was prepared and held frozen at −40° C. The levels of the steroid hormones progesterone, cortisol, and corticosterone were determined by ELISA.
(§6) The concentrations of steroid hormones were determined three times during the study: before the beginning of treatments, after 21 days of treatment and finally after treatment at sacrifice which was 2-4 days after the last s.c. injection. All samples were taken by heart puncture. Serum was obtained and held frozen at −40° C. The levels of steroid hormones were determined by ELISA.
For orientation: ELISA stands for enzyme-linked immunosorbent assay.

Series [7] is described as follows: Serum corticosterone by ELISA. The conditions noted are these: exogenous progesterone 10 mg/kg, after 21 days of treatment, paired groups. Type of series: in vivo, rat. On the procedure: as §5, §6
Corticosterone is the most abundant glucocorticoid in rats. The effects of the SPRMs on cortisol may be secondary to strong effects on corticosterone. […] The levels of corticosterone were 10-40 times higher than the levels of cortisol. However, almost no difference between groups with respect to mean corticosterone levels was observed. […] There was no statistical difference in levels of corticosterone between animals with tumors and without tumors at either 21-days (p=0.94, t-test, two-tailed) or at sacrifice (p=0.37, t-test, two-tailed).

Each structure is given as a SMILES string.

Regarding `CC(=O)[C@H]1CC[C@H]2[C@@H]3CCC4=CC(=O)CC[C@]4(C)[C@H]3CC[C@]12C` [Progesterone, progesterone], in [1], the “ACA + PCA per rat” value was 4.90, the ACA per rat was 3.3, the FA/AF no. stood at 3 and the “Incidence of tumors (%)” value was “(100) %”. In series [1], the “Incidence of tumors (rats with tumors/rats)” value was 10/10 and the PCA per rat was determined as 1.4. In addition, the “ACA + PCA per rat” value in series [1] (listed as progesterone) was roughly 5. Further, the “proportion of tumors regressing” value in series [2] (decrease of cross-sectional area by about 33% over 28 days) is on record as 8%. The “proportion of the growing tumors” value in [2] (increase of cross-sectional area by at least 33% over 28 days) was determined as 80%. Moreover, in [3], the “Tumor Burden” value stood at 7.34 g/rat, the “Tumor Weight mean” value worked out at 1.5 g and the “Tumor Weight median” value was found to be 0.5 g. Further, the “Number of Tumors” value in [3] (FA/AF excluded) was found to be 49. Moreover, the “Proliferating tumor cells by Ki-67, % cells positive” value in series [4] worked out at 25.7 ± 5.8%. For the same compound, in the series with rat tumors, the “Apoptosis, % cells positive” value is given as 1.28 ± 0.51%. Also, the “number of cells expressing ER in tumors (in words)” value in the series on estrogen receptor (ER) is reported as “increased number of cells expressing ER”. For the same compound, the “PR expression in tumors (in words)” value in series [5] is “tended to raise PR expression”. The “Serum Progesterone, Before TX (mean)” value in [6] (10 mg/kg group, before treatment) was determined as 51 ng/mL. Besides, in series [6] (10 mg/kg, after 21 days of treatment), the “Serum Progesterone, During TX (mean)” value turned out to be 55 ng/mL. The “Serum Progesterone, After TX (mean)” value in series [6] (10 mg/kg, at sacrifice 2-4 days after the last s.c. injection) was 54 ng/mL. Moreover, the “effect on serum corticosterone (in words)” value in series [7] is “levels of corticosterone were lowered”.

These data come from patent US20110053900A1, “PROGESTERONE ANTAGONISTS SUCH AS CDB-4124 IN THE TREATMENT OF BREAST CANCER” (Repros Therapeutics inc, priority 2008, published 2011).
